Measurements taken from paper PMC5052702 (Nature Communications, 2016).
Where “and” joins values, the source holds several entries; their conditions need not be identical. Equal entries are not always repeated.

Experiments:
CVB3 3C protease = target: T1, CVB3 3C protease (Coxsackievirus B3, UniProt P03313); assay: FRET-based enzyme activity assay (warhead activation / inhibitor kinetics); format: biochemical, Coxsackie virus B3
T1 construct: 3C protease of Coxsackie virus B3 consisting of 183 amino-acid residues; made in house; host or cells: E. coli BL21(DE3), plasmid pET-23a(+)
T1 sequence (P03313 1541-1723): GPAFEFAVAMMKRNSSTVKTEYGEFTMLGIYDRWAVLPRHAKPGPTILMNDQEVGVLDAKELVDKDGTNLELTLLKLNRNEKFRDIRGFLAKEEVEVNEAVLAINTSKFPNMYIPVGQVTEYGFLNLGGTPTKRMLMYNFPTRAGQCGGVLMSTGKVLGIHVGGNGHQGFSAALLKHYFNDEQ
Experimental: The activity of the protease was measured by hydrolysis of the FRET-substrate N-Dabcyl-KTLEALFQ↓GPPVYE(Edans)-NH2. The peptide was purchased from Biosyntan (Berlin, Germany). Samples were irradiated with light with a wavelength of 355 nm and the emitted light at 538 nm was measured in relative fluorescence units (RFUs). An amount of 100 pmol of cleaved substrate equals 5,000 RFU.
Assay samples contained 10 μl of a 100 mM HEPES-NaOH buffer solution pH 7.5/1 mM EDTA, 10 μl enzyme solution (2 μM CVB3 3C^Pro), 10 μl of 10 μM substrate solution (both dissolved in the above buffer) and 1 μl Inhibitor and/or fragment dissolved in DMSO. For assay results of a dilution series of a mixture of 1 and 2 and comparison of reaction products in dependence of the assay solvent, see Supplementary Figs 1 and 2.
The screening procedure consisted of the following steps: 10 μl 100 mM HEPES-NaOH buffer solution pH 7.5/1 mM EDTA was placed in a cavity of the 384-well plate (polystyrene, Corning 3544). Then 10 μl of enzyme solution (40 μM CVB3 3C protease in 100 mM HEPES-NaOH buffer solution, pH 7.5/1 mM EDTA) was added and the plate was shaken for 2 min at 1,400 r.p.m. Afterwards, 0.5 μl of a DMSO solution of the electrophilic probe and 0.5 μl of a DMSO solution of the nucleophile was added, followed by 10 μl of substrate solution (10 μM in 100 mM HEPES-NaOH buffer solution, pH 7.5/1 mM EDTA). The plate was shaken again for 2 min at 1,400 r.p.m. and the generated fluorescence signal was measured with a Safire II Fluorimeter from Tecan. The electrophilic probe 1 was used at a concentration of 400 μM for the screening, which lowered the protease activity by 10–20%. Eight-hundred fifty primary amines were tested at a concentration of 320 μM and fragment 2 amplified the inhibitory activity of 1 most potently. Positive control samples contained only DMSO instead of the probe or the nucleophile. Negative control samples contained no active enzyme. An interfering fluorescent effect has not been observed.
When determining the inhibitory parameters of an inhibitor, the assay set-up was as mentioned but 1 μl DMSO solution of inhibitor was used instead of probe or nucleophile. Different concentrations of inhibitor were tested at least as duplicates and the pseudo-first-order association kinetics (kobs) were determined using GraphPad Prism. The slope of a plot of the different kobs values against the inhibitor concentration yielded kinact/KI.

[1] = target: T2, Coxsackie virus 3C protease (Coxsackievirus B3, UniProt P03313); assay: ESI-MS of protease after incubation with inhibitor (covalent modification); format: binding; conditions: deconvoluted ESI-MS, main peak
T2 construct: 3C protease of Coxsackie virus B3 consisting of 183 amino-acid residues; made in house; host or cells: E. coli BL21(DE3), plasmid pET-23a(+)
T2 sequence (P03313 1541-1723): as above
Experimental: This inactivation rate corresponded to an apparent half-maximal inhibitory concentration (IC50) value of >>1 mM after 10 min (Fig. 2b, Table 1). The covalent mode of action was confirmed by electrospray ionization high-resolution ion mobility spectrometry-mass spectrometry (ESI-MS) measurements. Incubation of the protease with warhead 1 shifted the main deconvoluted mass peak of the protein from 21,471.5 to 21,588.5 Da and the observed protein mass difference of 117 Da corresponded well with the molecular weight of bis-electrophile 1 after hydrolysis of the ethyl ester.
High-resolution mass spectra were recorded on a Synapt G2-S HDMS by Waters Co. (Milford, […]) equipped with an Acquity UPLC and a Phenomenex Jupiter C-18 column (3 × 250 mm, 5 μm, 300 Å). The ionization and transfer parameters of the MS system have been optimized for a standard sample (insulin) and were applied without modification. Deconvolution of measurement results was performed by the MaxEnt1 method of the MassLynx software by Waters Co. The most important source parameters are: capillary voltage: 3.3 kV, sampling cone: 40 V, source offset: 60 V, source temperature: 100 °C, desolvation temperature: 250 °C, desolvation gas flow: 600 l h^−1. […]

CCOC(=O)[C@H]1O[C@@H]1C=O [Compound 1, ethyl (2S,3S)-epoxy-4-oxo-butanoate]
inhibition of the protease, in words (CVB3 3C protease): virtually inactive
IC50 (CVB3 3C protease; after 10 min, read-out: apparent half-maximal inhibitory concentration (IC50)): > 1000 µM
lowering of protease activity (CVB3 3C protease; probe at 400 μM, screening): 10–20%
kinact/KI (CVB3 3C protease; relative inactivation rate, slope of kobs against inhibitor concentration): 2.36 M⁻¹ s⁻¹ and 2.4 ± 0.1 M⁻¹ s⁻¹
observed protein mass difference after incubation [1]: 117 Da
